Experimental data reported in patent US6727076B2 (priority 1995, dated 2004).
Peptide text beside a SMILES is read from it.

How the values were obtained:
[1] = tested on: E. coli strain 14445 (MG1655 himA); type: cell-based
[2] = tested on: E. coli strain 6321 (MG1655); type: cell-based; further: key: '+' indicates that the organism tested was capable of utilizing the carbon source listed; '−' indicates that the organism tested was not capable of utilizing the carbon source listed; 'w' indicates weak positive reactions
[3] = tested on: E. coli strain 13673 (O157); type: cell-based
[4] = tested on: E. coli strain 6322 (EMG2 (K12, λF+)); type: cell-based; further: key: '+' indicates that the organism tested was capable of utilizing the carbon source listed; '−' indicates that the organism tested was not capable of utilizing the carbon source listed; 'w' indicates weak positive reactions
[5] = tested on: E. coli strain 11547 (O157:H7); type: cell-based
[6] = tested on: E. coli strain 14444 (MG1655 xylA); type: cell-based
[7] = tested on: E. coli strain 6320 (W3110); type: cell-based; further: key: '+' indicates that the organism tested was capable of utilizing the carbon source listed; '−' indicates that the organism tested was not capable of utilizing the carbon source listed; 'w' indicates weak positive reactions
[8] = tested on: E. coli strain 14443 (MG1655 (FB426)); type: cell-based
[9] = tested on: E. coli strain 13675 (O157); type: cell-based
[10] = tested on: E. coli strain 13671 (O157:H? gur+); type: cell-based
S. typhimurium pyrCΔ73 = type: cell-based, Salmonella typhimurium
T. harzianum DAOM 190830 = type: cell-based, Trichoderma harzianum
[11] = tested on: E. coli 287 (ATCC #11775); type: cell-based
E. coli MG1655 [12] = type: cell-based
E. coli MG1655 [13] = type: cell-based; remark: listed apart in the source

With `O=C(O)CC(O)C(=O)O` (racemic) [D,L-malic acid] the carbon source utilization [1] was “+”, the carbon source utilization [2] was “+” and the carbon source utilization [3] was “+”. For the same compound, the carbon source utilization [4] was “+”, the carbon source utilization [5] was “+” and the carbon source utilization [6] was “+”. The carbon source utilization [7] was “+”, the carbon source utilization [8] was “+” and the carbon source utilization [9] was “+”. For the same compound, the carbon source utilization [10] was “+”.

In the case of `CC(O)CO` (stereo not shown) [1,2-propanediol], the carbon source utilization [1] is reported as “−”, the carbon source utilization [2] is reported as “−” and the carbon source utilization [3] is reported as “−”. For the same compound, the carbon source utilization [4] was “−”, the carbon source utilization [5] was “−” and the carbon source utilization [6] was “−”. The carbon source utilization [7] was “−”, the carbon source utilization [8] was “−” and the carbon source utilization [9] was “−”. For the same compound, the carbon source utilization [10] was “−”.

With `Nc1ccn([C@H]2C[C@H](O)[C@@H](CO)O2)c(=O)n1` [2-deoxycytidine] the “growth stimulation by supplement (well color)” value (“growth stimulation” below) (S. typhimurium pyrCΔ73) was “turned purple”.

In the case of `O=c1ccn([C@H]2C[C@H](O)[C@@H](CO)O2)c(=O)[nH]1` [2-deoxyuridine], the “growth stimulation” value (S. typhimurium pyrCΔ73) is reported as “turned purple”.

With `Nc1ncnc2c1ncn2[C@H]1C[C@H](O)[C@@H](CO)O1` [2′-deoxy-adenosine] the “growth stimulation” value (S. typhimurium pyrCΔ73) was “turned weakly purple”.

`Nc1nc2c(ncn2[C@H]2C[C@H](O)[C@@H](CO)O2)c(=O)[nH]1` [2′deoxyguanosine] was tested, and the “growth stimulation” value (S. typhimurium pyrCΔ73) was “turned weakly purple”.

`O=C(O)C[C@@H](O)C(=O)O` [D-malic acid] was tested, and the carbon source utilization [1] was “+”, the carbon source utilization [2] was “+” and the carbon source utilization [3] was “+”. For the same compound, the carbon source utilization [4] was “+”, the carbon source utilization [5] was “+” and the carbon source utilization [6] was “+”. The carbon source utilization [7] was “+”, the carbon source utilization [8] was “+” and the carbon source utilization [10] was “+”.

`O=C(O)[C@@H](O)[C@@H](O)[C@H](O)[C@@H](O)C(=O)O` [D-saccharic acid] was tested, and the “carbon source utilization, in words” value [3] was “negative”, the “carbon source utilization, in words” value [5] was “negative” and the “carbon source utilization, in words” value [9] was “negative”. The “carbon source utilization, in words” value [10] was “negative”.

`OC[C@@H](O)[C@@H](O)[C@H](O)[C@@H](O)CO` [D-sorbitol] was tested, and the “carbon source utilization result” value (T. harzianum DAOM 190830) was “positive”, the “carbon source utilization result” value [11] was “positive” and the “carbon source utilization, in words” value [3] was “negative”. The “carbon source utilization, in words” value [5] was “negative”, the “carbon source utilization, in words” value [9] was “negative” and the “carbon source utilization, in words” value [10] was “negative”.

For `O=C[C@H](O)[C@@H](O)[C@H](O)CO` [D-xylose], the “carbon source utilization, in words” value [6] was “negative” and the “carbon source utilization, in words” value [8] was “positive”.

With `O=C(O)CO` [Glycolic acid] the “carbon source utilization, in words” value [1] was “negative”.

In the case of `NCC(=O)N[C@@H](CCC(=O)O)C(=O)O` [Glycyl-L-glutamic acid] (H-Gly-Glu-OH), the “carbon source utilization result” value (T. harzianum DAOM 190830) is reported as “positive”, the “suitability as nitrogen source (growth, purple color)” value (“suitability as nitrogen source” below) (E. coli MG1655 [12]) is reported as “positive” and the “carbon source utilization result” value [11] is reported as “positive”.

With `OC[C@H]1O[C@@H](n2cnc3c(O)ncnc32)[C@H](O)[C@@H]1O` [Inosine] the “carbon source utilization result” value (T. harzianum DAOM 190830) was “positive”, the “suitability as nitrogen source” value (E. coli MG1655 [12]) was “not suitable” and the “carbon source utilization result” value [11] was “positive”. The “growth stimulation” value (S. typhimurium pyrCΔ73) was “turned weakly purple”.

`C[C@H](N)C(=O)NCC(=O)O` [L-alanyl-glycine] (H-Ala-Gly-OH) was tested, and the “carbon source utilization result” value (T. harzianum DAOM 190830) was “positive”, the “suitability as nitrogen source” value (E. coli MG1655 [12]) was “positive” and the “carbon source utilization result” value [11] was “positive”.

`N[C@@H](Cc1ccccc1)C(=O)O` [L-phenylalanine] was tested, and the “carbon source utilization result” value (T. harzianum DAOM 190830) was “positive”, the “suitability as nitrogen source” value (E. coli MG1655 [12]) was “not suitable” and the “carbon source utilization result” value [11] was “positive/negative”.

`O=C1CC[C@@H](C(=O)O)N1` [L-pyroglutamic acid] was tested, and the “carbon source utilization result” value (T. harzianum DAOM 190830) was “positive”, the “suitability as nitrogen source” value (E. coli MG1655 [12]) was “not suitable” and the “carbon source utilization result” value [11] was “positive/negative”.

For `OC[C@H]1O[C@H](O[C@H]2[C@H](O)[C@@H](O)[C@H](O)O[C@@H]2CO)[C@H](O)[C@@H](O)[C@@H]1O` [Maltose], the “carbon source utilization, in words” value [1] was “negative”, the “carbon source utilization result” value [11] was “positive” and the “carbon source utilization, in words” value [6] was “negative”.

For `CC(=O)N[C@H]1C(O)O[C@H](CO)[C@@H](O)[C@@H]1O` (stereo partly drawn) [N-acetyl-D-glucosamine], the “carbon source utilization result” value (T. harzianum DAOM 190830) was “positive”, the “suitability as nitrogen source” value (E. coli MG1655 [12]) was “positive” and the “carbon source utilization result” value [11] was “positive”.

`CCC(=O)O` [Propionic acid] was tested, and the “carbon source utilization, in words” value [1] was “negative” and the “carbon source utilization result” value [11] was “positive”.

In the case of `O=c1ccn([C@@H]2O[C@H](CO)[C@@H](O)[C@H]2O)c(=O)[nH]1` [Uridine], the “suitability as nitrogen source” value (E. coli MG1655 [12]) is reported as “not suitable”, the “carbon source utilization result” value [11] is reported as “positive” and the “growth stimulation” value (S. typhimurium pyrCΔ73) is reported as “turned purple”.

With `Nc1ncnc2c1ncn2[C@@H]1O[C@H](CO)[C@@H](OP(=O)(O)O)[C@H]1O` [adenosine 3-monophosphate, adenosine 3′-monophosphate] the “suitability as phosphorus source (growth, purple color)” value (“suitability as phosphorus source” below) (E. coli MG1655 [13]) was “positive” and the “growth stimulation” value (S. typhimurium pyrCΔ73) was “turned weakly purple”.

`Nc1ncnc2c1ncn2[C@@H]1O[C@H](COP(=O)(O)O)[C@@H](O)[C@H]1O` [adenosine 5′-monophosphate] was tested, and the “suitability as phosphorus source” value (E. coli MG1655 [13]) was “not suitable” and the “growth stimulation” value (S. typhimurium pyrCΔ73) was “turned weakly purple”.

`Nc1ncnc2c1ncn2[C@@H]1O[C@H](CO)[C@@H](O)[C@H]1OP(=O)(O)O` [adenosine-2′-monophosphate] was tested, and the “suitability as phosphorus source” value (E. coli MG1655 [13]) was “positive” and the “growth stimulation” value (S. typhimurium pyrCΔ73) was “turned weakly purple”.

With `Nc1ccn([C@@H]2O[C@H](CO)[C@@H](O)[C@H]2OP(=O)(O)O)c(=O)n1` [cytidine 2′-monophosphate] the “suitability as phosphorus source” value (E. coli MG1655 [13]) was “not suitable” and the “growth stimulation” value (S. typhimurium pyrCΔ73) was “turned purple”.

In the case of `Nc1ccn([C@@H]2O[C@H](CO)[C@@H](OP(=O)(O)O)[C@H]2O)c(=O)n1` [cytidine 3′-monophosphate], the “suitability as phosphorus source” value (E. coli MG1655 [13]) is reported as “positive” and the “growth stimulation” value (S. typhimurium pyrCΔ73) is reported as “turned purple”.

With `Nc1ccn([C@@H]2O[C@H](COP(=O)(O)O)[C@@H](O)[C@H]2O)c(=O)n1` [cytidine 5′-monophosphate] the “suitability as phosphorus source” value (E. coli MG1655 [13]) was “positive” and the “growth stimulation” value (S. typhimurium pyrCΔ73) was “turned purple”.

`Nc1ccn([C@@H]2O[C@H](CO)[C@@H](O)[C@H]2O)c(=O)n1` [cytidine] was tested, and the “growth stimulation” value (S. typhimurium pyrCΔ73) was “turned purple”.

With `Nc1cc[nH]c(=O)n1` [cytosine] the “suitability as nitrogen source” value (E. coli MG1655 [12]) was “not suitable” and the “growth stimulation” value (S. typhimurium pyrCΔ73) was “turned purple”.

`Nc1nc2nc[nH]c2c(=O)[nH]1` [guanine] was tested, and the “growth stimulation” value (S. typhimurium pyrCΔ73) was “turned weakly purple”.

For `Nc1nc2c(ncn2[C@@H]2O[C@H](CO)[C@@H](O)[C@H]2OP(=O)(O)O)c(=O)[nH]1` [guanosine 2′-monophosphate], the “suitability as phosphorus source” value (E. coli MG1655 [13]) was “positive” and the “growth stimulation” value (S. typhimurium pyrCΔ73) was “turned weakly purple”.

In the case of `Nc1nc2c(ncn2[C@@H]2O[C@H](COP(=O)(O)O)[C@@H](O)[C@H]2O)c(=O)[nH]1` [guanosine 5′-monophosphate], the “suitability as phosphorus source” value (E. coli MG1655 [13]) is reported as “positive” and the “growth stimulation” value (S. typhimurium pyrCΔ73) is reported as “turned weakly purple”.

For `O=C(O)[C@]1(O)C[C@@H](O)[C@@H](O)[C@H](O)C1` [quinic acid], the “carbon source utilization result” value (T. harzianum DAOM 190830) was “positive” and the “carbon source utilization result” value [11] was “negative”.

In the case of `O=C(O)CCCCCCCCC(=O)O` [sebacic acid], the “carbon source utilization result” value (T. harzianum DAOM 190830) is reported as “positive” and the “carbon source utilization result” value [11] is reported as “negative”.

`O=c1cc[nH]c(=O)[nH]1` [uracil] was tested, and the “suitability as nitrogen source” value (E. coli MG1655 [12]) was “not suitable” and the “growth stimulation” value (S. typhimurium pyrCΔ73) was “turned purple”.

In the case of `O=c1ccn([C@@H]2O[C@H](CO)[C@@H](OP(=O)(O)O)[C@H]2O)c(=O)[nH]1` [uridine 3′-monophosphate], the “suitability as phosphorus source” value (E. coli MG1655 [13]) is reported as “positive” and the “growth stimulation” value (S. typhimurium pyrCΔ73) is reported as “turned purple”.

For `O=c1ccn([C@@H]2O[C@H](COP(=O)(O)O)[C@@H](O)[C@H]2O)c(=O)[nH]1` [uridine 5′-monophosphate], the “suitability as phosphorus source” value (E. coli MG1655 [13]) was “positive” and the “growth stimulation” value (S. typhimurium pyrCΔ73) was “turned purple”.

`OC[C@H]1O[C@H](O)[C@H](O)[C@@H](O)[C@@H]1O` [α-D-glucose] was tested, and the “carbon source utilization result” value (T. harzianum DAOM 190830) was “positive” and the “carbon source utilization result” value [11] was “positive”.

`CCC(O)C(=O)O` (stereo not drawn) [α-hydroxy butyric acid] was tested, and the “carbon source utilization, in words” value [1] was “negative”.

`CCC(=O)C(=O)O` [α-ketobutyric acid] was tested, and the “carbon source utilization, in words” value [1] was “negative” and the “carbon source utilization result” value [11] was “positive”.

With `CC(O)CC(=O)O` (stereo not drawn) [β-hydroxybutyric acid] the “carbon source utilization result” value (T. harzianum DAOM 190830) was “positive” and the “carbon source utilization result” value [11] was “negative”.

For Tween-20, the carbon source utilization [1] was “−”, the carbon source utilization [6] was “−” and the carbon source utilization [7] was “−”. The carbon source utilization [8] was “−”.

Tween-80 was tested, and the carbon source utilization [1] was “−”, the “carbon source utilization result” value (T. harzianum DAOM 190830) was “positive” and the carbon source utilization [2] was “+”. For the same compound, the “carbon source utilization result” value [11] was “positive”, the carbon source utilization [6] was “−” and the carbon source utilization [8] was “−”.

dextrin was tested, and the “carbon source utilization result” value (T. harzianum DAOM 190830) was “positive” and the “carbon source utilization result” value [11] was “positive”.

gentiobiose was tested, and the “carbon source utilization result” value (T. harzianum DAOM 190830) was “positive” and the “carbon source utilization result” value [11] was “positive/negative”.
